From patent publication US12240853B2, “Compounds useful in HIV therapy” (GlaxoSmithKline Intellectual Property (No.2) Limited, priority 2019, dated 2025)
Read-outs that look alike come from different tables or passages of the source.

Assay: Example 18 cynomolgus monkey PK study (SC and IM)
Format: in vivo, cynomolgus monkeys
Description: Example 18 referenced herein was made in accordance with Synthesis B. Six male cynomolgus monkeys (+1 spare) were selected from the Testing Facility's colony of non-naïve animals. The animals were assigned to the study based on acceptable health as determined by a Testing Facility veterinarian. Six animals were selected and placed into two groups of three animals each. Fasting of the animals before or after dosing was not required.
[…] […] The animals were manually restrained for dosing and were not sedated. The dose sites were clipped of hair and wiped with alcohol before dosing. All dosing was performed as detailed in the study protocol and was completed without incident.
Blood samples were collected from the study animals as detailed in the sample collection Table 39 below.
Blood samples were collected by venipuncture of a cephalic vein. For PK, blood was transferred to a blood collection tube containing NaF/Na2EDTA anticoagulant, mixed by inversion, and maintained on wet ice until processing. The blood samples were centrifuged at 2200×g for 10 minutes at 5° C. to isolate plasma. The resulting plasma samples were transferred to individual polypropylene tubes in a 96-well plate format and immediately placed on dry ice until storage at nominally −20° C. prior to shipment for analysis.
The PK plasma samples were analyzed approximately every two weeks by the Testing Facility to determine the concentration of Example 18 (prodrug) and parent using an LC-MS/MS Research Grade Assay (RGA-1) with sensitivity to 0.1 ng/mL. Following interim review of sample analysis data, analysis for Example 18 (prodrug) was discontinued after the Day 57 sample collections. The bioanalytical report and sample concentration data are presented in Tables 40 and 41, and mean concentration-time profiles are shown in FIGS. 29 and 30

C#C[C@]1(COC(=O)CCCCCCCCC)O[C@@H](n2cnc3c(N)nc(F)nc32)C[C@@H]1OC(=O)CCCCCCCCC [Example 18, (2R,3S,5R)-5-(6-amino-2-fluoro-9H-purin-9-yl)-2-((decanoyloxy)methyl)-2-ethynyltetrahydrofuran-3-yl Decanoate]
Example 18 plasma concentrations (IM EFdA, Monkey 2001, 43 days): BQL (BQL—Below Quantitation Limit, <0.100 ng/mL)
Example 18 plasma concentrations (IM EFdA, Monkey 2001, 57 days): BQL (BQL—Below Quantitation Limit, <0.100 ng/mL)
EFdA plasma concentrations (IM EFdA, Monkey 2002, 0.021 days): BQL (BQL—Below Quantitation Limit, <0.100 ng/mL)
Example 18 plasma concentrations (IM EFdA, Monkey 2002, 36 days): BQL (BQL—Below Quantitation Limit, <0.100 ng/mL)
Example 18 plasma concentrations (IM EFdA, Monkey 2002, 39 days): BQL (BQL—Below Quantitation Limit, <0.100 ng/mL)
Example 18 plasma concentrations (IM EFdA, Monkey 2002, 46 days): BQL (BQL—Below Quantitation Limit, <0.100 ng/mL)
Example 18 plasma concentrations (IM EFdA, Monkey 2002, 50 days): BQL (BQL—Below Quantitation Limit, <0.100 ng/mL)
Example 18 plasma concentrations (IM EFdA, Monkey 2003, 29 days): BQL (BQL—Below Quantitation Limit, <0.100 ng/mL)
Example 18 plasma concentrations (IM EFdA, Monkey 2003, 53 days): BQL (BQL—Below Quantitation Limit, <0.100 ng/mL)
Example 18 plasma concentrations (IM equivalent of EFdA, Monkey 2001, 25 days): BQL (BQL—Below Quantitation Limit, <0.100 ng/mL)
Example 18 plasma concentrations (IM equivalent of EFdA, Monkey 2001, 32 days): BQL (BQL—Below Quantitation Limit, <0.100 ng/mL)
Example 18 plasma concentrations (IM equivalent of EFdA, Monkey 2001, 39 days): BQL (BQL—Below Quantitation Limit, <0.100 ng/mL)
Example 18 plasma concentrations (IM equivalent of EFdA, Monkey 2001, 53 days): BQL (BQL—Below Quantitation Limit, <0.100 ng/mL)
Example 18 plasma concentrations (IM equivalent of EFdA, Monkey 2002, 32 days): BQL (BQL—Below Quantitation Limit, <0.100 ng/mL)
Example 18 plasma concentrations (IM equivalent of EFdA, Monkey 2002, 57 days): BQL (BQL—Below Quantitation Limit, <0.100 ng/mL)
EFdA plasma concentrations (IM equivalent of EFdA, Monkey 2003, 0.021 days): BQL (BQL—Below Quantitation Limit, <0.100 ng/mL)
Example 18 plasma concentrations (IM equivalent of EFdA, Monkey 2003, 32 days): BQL (BQL—Below Quantitation Limit, <0.100 ng/mL)
Example 18 plasma concentrations (IM equivalent of EFdA, Monkey 2003, 39 days): BQL (BQL—Below Quantitation Limit, <0.100 ng/mL)
Example 18 plasma concentrations (IM equivalent of EFdA, Monkey 2003, 50 days): BQL (BQL—Below Quantitation Limit, <0.100 ng/mL)
Example 18 plasma concentrations (IM equivalent of EFdA, Monkey 2003, 57 days): BQL (BQL—Below Quantitation Limit, <0.100 ng/mL)
Example 18 plasma concentrations (IM, Monkey 2001, 36 days): BQL (BQL—Below Quantitation Limit, <0.100 ng/mL)
Example 18 plasma concentrations (IM, Monkey 2001, 46 days): BQL (BQL—Below Quantitation Limit, <0.100 ng/mL)
Example 18 plasma concentrations (IM, Monkey 2001, 50 days): BQL (BQL—Below Quantitation Limit, <0.100 ng/mL)
Example 18 plasma concentrations (IM, Monkey 2002, 43 days): BQL (BQL—Below Quantitation Limit, <0.100 ng/mL)
Example 18 plasma concentrations (IM, Monkey 2002, 53 days): BQL (BQL—Below Quantitation Limit, <0.100 ng/mL)
Example 18 plasma concentrations (IM, Monkey 2003, 36 days): BQL (BQL—Below Quantitation Limit, <0.100 ng/mL)
Example 18 plasma concentrations (IM, Monkey 2003, 43 days): BQL (BQL—Below Quantitation Limit, <0.100 ng/mL)
Example 18 plasma concentrations (SC EFdA, Monkey 1001, 22 days): BQL (BQL—Below Quantitation Limit, <0.100 ng/mL)
Example 18 plasma concentrations (SC EFdA, Monkey 1001, 29 days): BQL (BQL—Below Quantitation Limit, <0.100 ng/mL)
Example 18 plasma concentrations (SC EFdA, Monkey 1001, 43 days): BQL (BQL—Below Quantitation Limit, <0.100 ng/mL)
Example 18 plasma concentrations (SC EFdA, Monkey 1001, 46 days): BQL (BQL—Below Quantitation Limit, <0.100 ng/mL)
Example 18 plasma concentrations (SC EFdA, Monkey 1001, 53 days): BQL (BQL—Below Quantitation Limit, <0.100 ng/mL)
EFdA plasma concentrations (SC EFdA, Monkey 1002, 0.021 days): BQL (BQL—Below Quantitation Limit, <0.100 ng/mL)
Example 18 plasma concentrations (SC EFdA, Monkey 1002, 29 days): BQL (BQL—Below Quantitation Limit, <0.100 ng/mL)
Example 18 plasma concentrations (SC EFdA, Monkey 1002, 43 days): BQL (BQL—Below Quantitation Limit, <0.100 ng/mL)
Example 18 plasma concentrations (SC equivalent of EFdA, Monkey 1001, 8 days): BQL (BQL—Below Quantitation Limit, <0.100 ng/mL)
Example 18 plasma concentrations (SC equivalent of EFdA, Monkey 1001, 17 days): BQL (BQL—Below Quantitation Limit, <0.100 ng/mL)
Example 18 plasma concentrations (SC equivalent of EFdA, Monkey 1001, 19 days): BQL (BQL—Below Quantitation Limit, <0.100 ng/mL)
Example 18 plasma concentrations (SC equivalent of EFdA, Monkey 1001, 32 days): BQL (BQL—Below Quantitation Limit, <0.100 ng/mL)
Example 18 plasma concentrations (SC equivalent of EFdA, Monkey 1001, 36 days): BQL (BQL—Below Quantitation Limit, <0.100 ng/mL)
Example 18 plasma concentrations (SC equivalent of EFdA, Monkey 1001, 39 days): BQL (BQL—Below Quantitation Limit, <0.100 ng/mL)
Example 18 plasma concentrations (SC equivalent of EFdA, Monkey 1001, 50 days): BQL (BQL—Below Quantitation Limit, <0.100 ng/mL)
EFdA plasma concentrations (SC equivalent of EFdA, Monkey 1002, 0.042 days): BQL (BQL—Below Quantitation Limit, <0.100 ng/mL)
Example 18 plasma concentrations (SC equivalent of EFdA, Monkey 1002, 22 days): BQL (BQL—Below Quantitation Limit, <0.100 ng/mL)
Example 18 plasma concentrations (SC equivalent of EFdA, Monkey 1002, 32 days): BQL (BQL—Below Quantitation Limit, <0.100 ng/mL)
Example 18 plasma concentrations (SC equivalent of EFdA, Monkey 1002, 39 days): BQL (BQL—Below Quantitation Limit, <0.100 ng/mL)
Example 18 plasma concentrations (SC equivalent of EFdA, Monkey 1002, 50 days): BQL (BQL—Below Quantitation Limit, <0.100 ng/mL)
Example 18 plasma concentrations (SC equivalent of EFdA, Monkey 1002, 53 days): BQL (BQL—Below Quantitation Limit, <0.100 ng/mL)
Example 18 plasma concentrations (SC equivalent of EFdA, Monkey 1002, 57 days): BQL (BQL—Below Quantitation Limit, <0.100 ng/mL)
EFdA plasma concentrations (SC equivalent of EFdA, Monkey 1003, 0.021 days): BQL (BQL—Below Quantitation Limit, <0.100 ng/mL)
EFdA plasma concentrations (SC, Mean, 0.021 days): BQL (BQL—Below Quantitation Limit, <0.100 ng/mL)
Example 18 plasma concentrations (SC, Mean, 17 days): BQL (BQL—Below Quantitation Limit, <0.100 ng/mL)
EFdA plasma concentrations (SC, Monkey 1001, 0.021 days): BQL (BQL—Below Quantitation Limit, <0.100 ng/mL)
Example 18 plasma concentrations (SC, Monkey 1001, 25 days): BQL (BQL—Below Quantitation Limit, <0.100 ng/mL)
Example 18 plasma concentrations (SC, Monkey 1001, 57 days): BQL (BQL—Below Quantitation Limit, <0.100 ng/mL)
Example 18 plasma concentrations (SC, Monkey 1002, 17 days): BQL (BQL—Below Quantitation Limit, <0.100 ng/mL)
Example 18 plasma concentrations (SC, Monkey 1002, 19 days): BQL (BQL—Below Quantitation Limit, <0.100 ng/mL)
Example 18 plasma concentrations (SC, Monkey 1002, 25 days): BQL (BQL—Below Quantitation Limit, <0.100 ng/mL)
Example 18 plasma concentrations (SC, Monkey 1002, 36 days): BQL (BQL—Below Quantitation Limit, <0.100 ng/mL)
Example 18 plasma concentrations (SC, Monkey 1002, 46 days): BQL (BQL—Below Quantitation Limit, <0.100 ng/mL)
EFdA plasma concentrations (SC, Monkey 1003, 0.042 days): BQL (BQL—Below Quantitation Limit, <0.100 ng/mL)
Clinical observations and dose site reactions (cynomolgus monkey, single SC or IM injection, 5 mg parent/kg): All animals appeared normal at the time of each observation and no dose site reactions were observed
concentration at 0.021 days (male, cynomolgus monkey, plasma, intramuscular, 20 mg/kg equivalent of EFdA, IM 20 mg/kg equivalent of EFdA, Mean, 0.021 days, read-out: Example 18 plasma concentrations): 11.9 ng/mL
concentration at 0.042 days (male, cynomolgus monkey, plasma, intramuscular, 20 mg/kg equivalent of EFdA, IM 20 mg/kg equivalent of EFdA, Mean, 0.042 days, read-out: Example 18 plasma concentrations): 15 ng/mL
concentration at 0.125 days (male, cynomolgus monkey, plasma, intramuscular, 20 mg/kg equivalent of EFdA, IM 20 mg/kg equivalent of EFdA, Mean, read-out: Example 18 plasma concentrations): 28.5 ng/mL
concentration at 0.208 days (male, cynomolgus monkey, plasma, intramuscular, 20 mg/kg equivalent of EFdA, IM 20 mg/kg equivalent of EFdA, Mean, 0.208 days, read-out: Example 18 plasma concentrations): 28.3 ng/mL
concentration at 0.292 days (male, cynomolgus monkey, plasma, intramuscular, 20 mg/kg equivalent of EFdA, IM 20 mg/kg equivalent of EFdA, Mean, 0.292 days, read-out: Example 18 plasma concentrations): 18.3 ng/mL
concentration at 1 days (male, cynomolgus monkey, plasma, intramuscular, 20 mg/kg equivalent of EFdA, IM 20 mg/kg equivalent of EFdA, Mean, 1 days, read-out: Example 18 plasma concentrations): 4.49 ng/mL
concentration at 2 days (male, cynomolgus monkey, plasma, intramuscular, 20 mg/kg equivalent of EFdA, IM 20 mg/kg equivalent of EFdA, Mean, 2 days, read-out: Example 18 plasma concentrations): 0.52 ng/mL
concentration at 3 days (male, cynomolgus monkey, plasma, intramuscular, 20 mg/kg equivalent of EFdA, IM 20 mg/kg equivalent of EFdA, Mean, 3 days, read-out: Example 18 plasma concentrations): 0.505 ng/mL
concentration at 8 days (male, cynomolgus monkey, plasma, intramuscular, 20 mg/kg equivalent of EFdA, IM 20 mg/kg equivalent of EFdA, Mean, 8 days, read-out: Example 18 plasma concentrations): 0.187 ng/mL
concentration at 10 days (male, cynomolgus monkey, plasma, intramuscular, 20 mg/kg equivalent of EFdA, IM 20 mg/kg equivalent of EFdA, Mean, 10 days, read-out: Example 18 plasma concentrations): 0.173 ng/mL
concentration at 17 days (male, cynomolgus monkey, plasma, intramuscular, 20 mg/kg equivalent of EFdA, IM 20 mg/kg equivalent of EFdA, Mean, 17 days, read-out: Example 18 plasma concentrations): 0.145 ng/mL
concentration at 19 days (male, cynomolgus monkey, plasma, intramuscular, 20 mg/kg equivalent of EFdA, IM 20 mg/kg equivalent of EFdA, Mean, 19 days, read-out: Example 18 plasma concentrations): 0.124 ng/mL
concentration at 22 days (male, cynomolgus monkey, plasma, intramuscular, 20 mg/kg equivalent of EFdA, IM 20 mg/kg equivalent of EFdA, Mean, 22 days, read-out: Example 18 plasma concentrations): 0.13 ng/mL
concentration at 25 days (male, cynomolgus monkey, plasma, intramuscular, 20 mg/kg equivalent of EFdA, IM 20 mg/kg equivalent of EFdA, Mean, 25 days, read-out: Example 18 plasma concentrations): 0.151 ng/mL
concentration at 0.021 days (male, cynomolgus monkey, plasma, intramuscular, 20 mg/kg equivalent of EFdA, IM 20 mg/kg equivalent of EFdA, Monkey 2001, 0.021 days, read-out: Example 18 plasma concentrations): 21.8 ng/mL
concentration at 0.042 days (male, cynomolgus monkey, plasma, intramuscular, 20 mg/kg equivalent of EFdA, IM 20 mg/kg equivalent of EFdA, Monkey 2001, 0.042 days, read-out: Example 18 plasma concentrations): 29.2 ng/mL
concentration at 0.125 days (male, cynomolgus monkey, plasma, intramuscular, 20 mg/kg equivalent of EFdA, IM 20 mg/kg equivalent of EFdA, Monkey 2001, read-out: Example 18 plasma concentrations): 53.7 ng/mL
